We go through 4 molecules from US20060141629A1, “Method and system for determining platelet-mediated clot formation” (priority 2004, published 2006).

For experiment [1], the system named is normal blood samples (citrated whole blood). Description: Thrombin dose response of fibrin clot formation (CPA, image analysis). The class given is cell-based. As to conditions: FIGS. 2A-2B. As for the experimental part: In this assay, increasing concentrations of thrombin, which promotes fibrin clot formation, were applied to normal blood samples. In particular, thrombin was placed on the tip of the rotating conical disc, in an amount yielding final concentration according to the points indicated in FIG. 3A and FIG. 3B. The conical disc was then applied in the well containing 130 μL of citrated whole blood, rotated at 720 rpm for two minutes followed by washing and staining of the well. For quantitative determination of fibrin clot formation image analysis (using Impact-R image analysis system, DiaMed, Switzerland) was performed.
Image analysis of the stained fibrin clots was performed expressing the amount of clot in terms of % of surface covered (SC, %), and the average size (AS, μm^2) of the stained clots.

The test system of experiment [2] is whole blood sample from a healthy subject. Description: Titration of thrombin inhibitor hirudin with thrombin (CPA). In kind it is cell-based. As for the experimental part: The levels of thrombin inhibitory drugs such as hirudin and its analogs were determined by titrating the thrombin inhibitor in a whole blood sample with thrombin. To a whole blood sample from a healthy subject hirudin (Sigma) was add to a level of 5×10^−1 anti-thrombin Units/ml. Bovine thrombin (Sigma) (5 Units/ml or 10 Units/ml) was then added to the hirudin treated and untreated whole blood. The thrombin was placed on the upper cap of a CPA well set attached to a magnetic stirrer. The stirrer assembly was placed in a well containing 130 μl of whole blood and spinning at about 720 rpm started immediately. After two min. the spinning was stopped. As described above, the well was washed and stained, and the clot % surface coverage and clot average size determined.

Experiment [3] in a line: INR (ratio of PT clotting times) in patients on coumadin. The class given is in vivo. The note with it: patients receiving coumadin therapy; normal INR 0.8-1.3.
The test system of experiment [4] is blood from patients receiving coumadin therapy. Description: PT reagent initiated clot formation (CPA), coumadin patients. The class given is cell-based.
Experimental: In this assay PT-fibrinogen reagent (Instrumentation Laboratories) was diluted 1:10 in normal saline containing 0.5% BSA to yield a 10% solution. On the upper cap of a CPA well set attached to a magnetic stirrer 1.6 μl of 1M CaCl2 and 3.8; or 4.0 μl of the diluted PT reagent were added. The stirrer assembly was placed in a CPA well containing 130 μl of whole blood and spinning at about 720 rpm started immediately. The spinning was stopped after 2 min. The well was then washed and stained as described above, and clot % surface coverage and clot average size were determined.
The subject of experiment [5] is vitamin K dependent clotting factors (II, VII, IX and X). Description: Level of vitamin K dependent clotting factors on coumadin therapy. The class given is in vivo. As to conditions: patient on coumadin therapy, INR=3.0.
The subject of experiment [6] is blood from a patient receiving heparin therapy. As to the kind of experiment: Heparin inhibition of factor Xa clot formation (CPA). The class given is cell-based. On the procedure: In the following experiment bovine factor Xa (Sigma) and CaCl2 were used to initiate clot formation in whole blood. On the upper cap of a CPA well set was placed 2.2 μl of a factor Xa solution (7×10^−3 unit/ml) and 1.6 μl of 1M CaCl2. The stirrer assembly was placed in a well containing 130 μl of whole blood and spinning at about 720 rpm started immediately. The spinning was stopped after 2 min. The well was then washed and stained, and the clot % surface coverage and the clot average size were determined.

Experiment [7] is described as follows: PTT of patient receiving heparin therapy. The class given is in vivo. The note with it: normal 26-34 sec.
Where [8] appears, read: factor Xa and CaCl2 added, FIG. 5D.

As to “thrombin: Bovine thrombin (Sigma), promotes fibrin clot formation; clot initiator”, the “thrombin added giving sharp increase in both average size and surface coverage” value in experiment [1] stood at 0.005 IU/ml. The clotting result in experiment [2] (added thrombin 6×10^−2 Units/ml, whole blood treated with hirudin, FIG. 7D) was “Clotting was observed”. For the same molecule, the “added thrombin concentration at which clotting began” value in experiment [2] (thrombin added to the whole blood, FIG. 7C) was 1×10^−2 Units/ml.

For hirudin, in experiment [2] (whole blood containing hirudin, thrombin 4×10^−2 Units/ml, FIG. 7B), the clotting entry is recorded as “no clotting was observed”.

For `CC(=O)CC(c1ccccc1)c1c(O)c2ccccc2oc1=O` (centres unmarked) [coumadin], in experiment [3], the INR is 3.0. The clot formation result was “no clots are formed” in experiment [4] (blood from coumadin patients, absence of clot initiator or CaCl2, FIG. 4C) and “no clot formation was observed” in experiment [4] (blood from coumadin treated patients (INR 3.0), PT reagent added, FIG. 4D). The “vitamin K dependent clotting factors level” value in experiment [5] is listed as 25-40%.

As to heparin, in experiment [6] (setting [8]), the clot average size came out at 30, the clot formation result was “no clot formation was observed” and the surface coverage turned out to be 3.0%. In experiment [6] (no factor Xa or CaCl2, FIG. 5C), this molecule registered a clot average size of 24 and a surface coverage of 8.2%. The molecule also came in with a PTT in experiment [7] of 130 s.
